Where two headings read alike, the source gives them in different places.

One experiment has as its target Mcl-1 (Homo sapiens (Human), UniProt Q07820). Put plainly: Fluorescence polarization anisotropy (FPA) competition assay, FITC-Bak or FITC-Bim BH3 peptide. In kind it is binding. The conditions noted are these: read-out: Ki for Inhibition of Mcl-1 by FPA assay.
Experiment [1] deals with H929 human cancer cell lines. Put plainly: Cellular viability / proliferation (Cell TiterGlo, 72 h). In kind it is cell-based. A digest of the protocol:
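Plating is at 1,000 cells/well in 10% FBS medium; after 24 h, compound is added as a 2-fold series starting at 50 μM with under 1% DMSO.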
In general terms: Cellular ATP, detected with luciferase, serves as a proxy for viable cell number.

Where [2] appears, read: Homo sapiens, NCI-H929, 72 h, read-out: GI50 on cellular proliferation of H929 human cancer cell lines, H929 cells, 72 h, Cell TiterGlo, 10% FBS.
[3] abbreviates: H929 cells, 72 h, Cell TiterGlo, 10% FBS, read-out: GI50 on cellular proliferation of H929 human cancer cell lines.

Chain of Mcl-1 (Q07820 172-327): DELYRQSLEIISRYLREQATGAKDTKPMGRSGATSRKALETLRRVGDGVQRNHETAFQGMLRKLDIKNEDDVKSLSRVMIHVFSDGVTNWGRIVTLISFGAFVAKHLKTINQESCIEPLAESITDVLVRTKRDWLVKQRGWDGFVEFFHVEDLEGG

For orientation: Ki means the equilibrium dissociation constant of an inhibitor or competing ligand from its target. On to `Cc1cc(OCCCc2c3n(c4c(-c5c(C)nn(C)c5C)c(Cl)ccc24)[C@H](C)CN(c2cccc4cc(C(=O)O)n(Cc5ccccn5)c24)C3=O)cc(C)c1Cl` [Example 247, 7-[(4R)-7-chloro-10-[3-(4-chloro-3,5-dimethyl-phenoxy)propyl]-4-methyl-1-oxo-6-(1,3,5-trimethylpyrazol-4-yl)-3,4-dihydropyrazino[1,2-a]indol-2-yl]-1-(2-pyridylmethyl)indole-2-carboxylic acid], for which, on Mcl-1, the Ki is less than 0.001 µM. Also, the GI50 in experiment [1] (read-out: GI50 on cellular proliferation of H929 human cancer cell lines, H929 cells, 72 h, Cell TiterGlo, 10% FBS) is less than 0.2 µM.
As for `Cc1cc(OCCCc2c3n(c4c(-c5c(C)nn(C)c5C)c(Cl)ccc24)[C@H](C)CN(c2cccc4cc(C(=O)O)n(CC5COC5)c24)C3=O)cc(C)c1Cl` [Example 383, (R)-7-(7-Chloro-10-(3-(4-chloro-3,5-dimethylphenoxy)propyl)-4-methyl-1-oxo-6-(1,3,5-trimethyl-1H-pyrazol-4-yl)-3,4-dihydropyrazino[1,2-a]indol-2(1H)-yl)-1-(oxetan-3-ylmethyl)-1H-indole-2-carboxylic acid], the Ki at Mcl-1 worked out at 0.0026 µM. For the same molecule, in experiment [1] (setting [2]), the GI50 stood at 1.5 µM.
For `Cc1cc(OCCCc2c3n(c4c(-c5c(C)nn(C)c5C)c(Cl)ccc24)[C@H](C)[C@@H](C)N(c2cccc(C(=O)O)c2)C3=O)cc(C)c1Cl` [Example 141, 3-((3R,4R)-7-chloro-10-(3-(4-chloro-3,5-dimethylphenoxy)propyl)-3,4-dimethyl-1-oxo-6-(1,3,5-trimethyl-1H-pyrazol-4-yl)-3,4-dihydropyrazino[1,2-a]indol-2(1H)-yl)benzoic acid], the Ki at Mcl-1 was 0.0045 µM. Moreover, the GI50 in experiment [1] (setting [2]) came out at 9.5 µM.
Take `Cc1cc(OCCCc2c3n(c4c(-c5c(C)ncnc5C)c(Cl)ccc24)[C@H](C)CN(c2cccc4cc(C(=O)O)n(C)c24)C3=O)cc(C)c1Cl` [Example 238, 7-[(4R)-7-chloro-10-[3-(4-chloro-3,5-dimethyl-phenoxy)propyl]-6-(4,6-dimethylpyrimidin-5-yl)-4-methyl-1-oxo-3,4-dihydropyrazino[1,2-a]indol-2-yl]-1-methyl-indole-2-carboxylic acid]: the Ki at Mcl-1 was less than 0.001 µM. The GI50 in experiment [1] (setting [2]) was 0.34 µM.
With `Cc1cc(OCCCc2c3n(c4c(-c5c(C)nn(C)c5C)c(Cl)ccc24)[C@H](C)CN(c2cccc4ccc(C(=O)O)cc24)C3=O)cc(C)c1Cl` [Example 349, (M, R)-8-(7-Chloro-10-(3-(4-chloro-3,5-dimethylphenoxy)propyl)-4-methyl-1-oxo-6-(1,3,5-trimethyl-1H-pyrazol-4-yl)-3,4-dihydropyrazino[1,2-a]indol-2(1H)-yl)-2-naphthoic acid], on Mcl-1, the Ki stood at 0.0028 µM. In addition, the GI50 in experiment [1] (setting [3]) was found to be 0.78 µM.
With `Cc1cc(OCCCc2c3n(c4c(-c5c(C)nn(C)c5C)c(Cl)ccc24)[C@H](C)CN(c2cn(C(C)C)c4ccc(C(=O)O)cc24)C3=O)cc(C)c1Cl` [Example 166, (R)-3-(7-Chloro-10-(3-(4-chloro-3,5-dimethylphenoxy)propyl)-4-methyl-1-oxo-6-(1,3,5-trimethyl-1H-pyrazol-4-yl)-3,4-dihydropyrazino[1,2-a]indol-2(1H)-yl)-1-isopropyl-1H-indole-5-carboxylic acid], the Ki on Mcl-1 was less than 0.001 µM. Also, the GI50 in experiment [1] (setting [2]) worked out at 1.4 µM.
Taken in the same sequence, the figures for `Cc1cc(OCCCc2c3n(c4c(-c5c(C)nn(C)c5C)c(Cl)ccc24)[C@H](C)CN(c2cc(C(=O)O)c4ncccc4c2)C3=O)cc(C)c1Cl` [Example 138, (R)-6-(7-chloro-10-(3-(4-chloro-3,5-dimethylphenoxy)propyl)-4-methyl-1-oxo-6-(1,3,5-trimethyl-1H-pyrazol-4-yl)-3,4-dihydropyrazino[1,2-a]indol-2(1H)-yl)quinoline-8-carboxylic acid] were 0.0022 µM and 4.8 µM.
Taken in the same sequence, the figures for `Cc1cc(OCCCc2c3n(c4c(-c5c(C)nn(C)c5C)c(Cl)ccc24)CCCN(c2cccc4c(C(=O)O)n(C)nc24)C3=O)cc(C)c1Cl` [Example 16, 7-[8-Chloro-11-[3-(4-chloro-3,5-dimethyl-phenoxy)propyl]-1-oxo-7-(1,3,5-trimethylpyrazol-4-yl)-4,5-dihydro-3H-[1,4]diazepino[1,2-a]indol-2-yl]-2-methyl-indazole-3-carboxylic acid] were less than 0.001 µM and 2.9 µM.
With `Cc1cc(OCCCc2c3n(c4c(-c5c(C)ncnc5C)c(Cl)ccc24)CCCNC3=O)cc(C)c1Cl` [Example 120, 8-Chloro-11-(3-(4-chloro-3,5-dimethylphenoxy)propyl)-7-(4,6-dimethylpyrimidin-5-yl)-2,3,4,5-tetrahydro-1H-[1,4]diazepino[1,2-a]indol-1-one], on Mcl-1, the Ki is 0.039 µM. Also, in experiment [1] (setting [2]), the GI50 worked out at 12 µM.
Consider `Cc1cc(OCCCc2c3n(c4c(-c5c(C)nn(C)c5C)c(Cl)ccc24)[C@H](C)CN(c2cc(OCc4ccccc4)cc4cc(C(=O)O)n(C)c24)C3=O)cc(C)c1Cl` [Example 333, (M, R)-5-(Benzyloxy)-7-(7-chlor-10-(3-(4-chloro-3,5-dimethylphenoxy)propyl)-4 methyl-1-oxo-6-(1,3,5-trimethyl-1H-pyrazol-4-yl)-3,4-dihydropyrazino[1,2-a]indol-2(1H)-yl)-1-methyl-1H-indole-2-carboxylic acid], for which, at Mcl-1, the inhibition constant Ki was 0.0013 µM. Moreover, the GI50 in experiment [1] (setting [3]) was 1.1 µM.
As for `Cc1cc(OCCCc2c3n(c4c(-c5c(C)nn(C)c5C)c(Cl)ccc24)[C@H](C)CN(c2cn(C)c4cccc(C(=O)O)c24)C3=O)cc(C)c1Cl` [Example 106, (R)-3-(7-Chloro-10-(3-(4-chloro-3,5-dimethylphenoxy)propyl)-4-methyl-1-oxo-6-(1,3,5-trimethyl-1H-pyrazol-4-yl)-3,4-dihydropyrazino[1,2-a]indol-2(1H)-yl)-1-methyl-1H-indole-4-carboxylic acid], at Mcl-1, the Ki is less than 0.001 µM. The GI50 in experiment [1] (setting [2]) was determined as 0.79 µM.
For `Cc1cc(OCCCc2c3n(c4c(-c5c(C)nn(C)c5C)c(Cl)ccc24)[C@H](C)CN(c2cc(OCc4ccccc4)cc4c2cc(C(=O)O)n4C)C3=O)cc(C)c1Cl` [Example 297, (P, R)-6-(benzyloxy)-4-(7-chloro-10-(3-(4-chloro-3,5-dimethylphenoxy)propyl)-4-methyl-1-oxo-6-(1,3,5-trimethyl-1H-pyrazol-4-yl)-3,4-dihydropyrazino[1,2-a]indol-2(1H)-yl)-1-methyl-1H-indole-2-carboxylic acid], the Ki at Mcl-1 was 0.0024 µM. Moreover, the GI50 in experiment [1] (setting [3]) was determined as 7.9 µM.
Consider `Cc1cc(OCCCc2c3n(c4c(-c5c(C)nn(C)c5C)c(Cl)ccc24)[C@H](C)CN(c2cc(OCCN4CCCC4)cc4cc(C(=O)O)n(C)c24)C3=O)cc(C)c1Cl` [Example 460, (R)-7-(7-Chloro-10-(3-(4-chloro-3,5-dimethylphenoxy)propyl)-4-methyl-1-oxo-6-(1,3,5-trimethyl-1H-pyrazol-4-yl)-3,4-dihydropyrazino[1,2-a]indol-2(1H)-yl)-1-methyl-5-(2-(pyrrolidin-1-yl)ethoxy)-1H-indole-2-carboxylic acid], for which the Ki on Mcl-1 stood at 0.0017 µM. Further, the GI50 in experiment [1] (setting [2]) came to 0.42 µM.
The matching figures for `CCn1cc(C(=O)O)c2c(N3C[C@@H](C)n4c(c(CCCOc5cc(C)c(Cl)c(C)c5)c5ccc(Cl)c(-c6c(C)nn(C)c6C)c54)C3=O)cccc21` [Example 173, 4-[(4R)-7-chloro-10-[3-(4-chloro-3,5-dimethyl-phenoxy)propyl]-4-methyl-1-oxo-6-(1,3,5-trimethylpyrazol-4-yl)-3,4-dihydropyrazino[1,2-a]indol-2-yl]-1-ethyl-indole-3-carboxylic acid]: 0.0027 µM and 3.3 µM.
For the molecule `Cc1cc(OCCCc2c3n(c4c(-c5c(C)nn(C)c5C)c(Cl)ccc24)[C@H](C)CN(c2ccc(Cl)c4c(C(=O)O)cn(C)c24)C3=O)cc(C)c1Cl` [Example 435, (R)-4-Chloro-7-(7-chloro-10-(3-(4-chloro-3,5-dimethylphenoxy)propyl)-4-methyl-1-oxo-6-(1,3,5-trimethyl-1H-pyrazol-4-yl)-3,4-dihydropyrazino[1,2-a]indol-2(1H)-yl)-1-methyl-1H-indole-3-carboxylic acid], the Ki on Mcl-1 was less than 0.001 µM. For the same molecule, the GI50 in experiment [1] (setting [2]) amounted to 0.57 µM.
Take `Cc1cc(OCCCc2c3n(c4c(-c5c(C)n[nH]c5C)c(Cl)ccc24)[C@H](C)CN(c2cn(C)c4ccc(C(=O)O)cc24)C3=O)cc(C)c1Cl` [Example 129, (R)-3-(7-chloro-10-(3-(4-chloro-3,5-dimethylphenoxy)propyl)-6-(3,5-dimethyl-1H-pyrazol-4-yl)-4-methyl-1-oxo-3,4-dihydropyrazino[1,2-a]indol-2(1H)-yl)-1-methyl-1H-indole-5-carboxylic acid]: on Mcl-1, the Ki was less than 0.001 µM. The GI50 in experiment [1] (setting [2]) is 0.55 µM.
As for `Cc1cc(OCCCc2c3n(c4c(-c5c(C)nn(C)c5C)c(Cl)ccc24)[C@H](C)CN(c2cn(C)c4ccc(-c5ncn(CC(C)C)n5)cc24)C3=O)cc(C)c1Cl` [Example 454, (R)-7-Chloro-10-(3-(4-chloro-3,5-dimethylphenoxy)propyl)-2-(5-(1-isobutyl-1H-1,2,4-triazol-3-yl)-1-methyl-1H-indol-3-yl)-4-methyl-6-(1,3,5-trimethyl-1H-pyrazol-4-yl)-3,4-dihydropyrazino[1,2-a]indol-1(2H)-one], at Mcl-1, the Ki was found to be 0.0035 µM. For the same molecule, the GI50 in experiment [1] (setting [2]) amounted to 2.1 µM.
As for `Cc1cccc(Cn2c(C(=O)O)cc3cccc(N4C[C@@H](C)n5c(c(CCCOc6cc(C)c(Cl)c(C)c6)c6ccc(Cl)c(-c7c(C)nn(C)c7C)c65)C4=O)c32)n1` [Example 381, (R)-7-(7-Chloro-10-(3-(4-chloro-3,5-dimethylphenoxy)propyl)-4-methyl-1-oxo-6-(1,3,5-trimethyl-1H-pyrazol-4-yl)-3,4-dihydropyrazino[1,2-a]indol-2(1H)-yl)-1-((6-methylpyridin-2-yl)methyl)-1H-indole-2-carboxylic acid], the Ki on Mcl-1 is 0.0026 µM. The GI50 in experiment [1] (setting [2]) was 0.25 µM.

These data come from patent US11596639B2, “Substituted indole Mcl-1 inhibitors” (Vanderbilt University, priority 2016, dated 2023).
